Patent US6596687B1, “Cell adhesion inhibitors” (Biogen, Inc., priority 1995, dated 2003)
Numbered stars: 1 amine (or outer) side, 2 acyl side, 3 side chain; on linkers, the order of the positions; unused ones are H or OH. Square brackets hold non-standard residues; d marks the D form. Peptide text beside a SMILES is read from it. * marks the point of attachment. X3 = COc1cc(CC(=O)[*:2])ccc1N[*:1]; X2 = O=C(Cc1ccc(N[*:1])cc1)[*:2]; NH(2-Me-phenyl) = Cc1ccccc1N*; PhAc = O=C(Cc1ccccc1)*; CO = O=C([*:1])[*:2]; Bz = O=C(c1ccccc1)*; NHPh = c1ccc(N*)cc1; Bn = c1ccc(C*)cc1; X1 = Oc1ccccc1N*; NHBu = CCCCN*

Target: T1, VLA4 (Homo sapiens, UniProt P05556+P13612)
T1 construct: endogenous in cells; host or cells: Ramos cells
T1 sequence (P13612 34-1032): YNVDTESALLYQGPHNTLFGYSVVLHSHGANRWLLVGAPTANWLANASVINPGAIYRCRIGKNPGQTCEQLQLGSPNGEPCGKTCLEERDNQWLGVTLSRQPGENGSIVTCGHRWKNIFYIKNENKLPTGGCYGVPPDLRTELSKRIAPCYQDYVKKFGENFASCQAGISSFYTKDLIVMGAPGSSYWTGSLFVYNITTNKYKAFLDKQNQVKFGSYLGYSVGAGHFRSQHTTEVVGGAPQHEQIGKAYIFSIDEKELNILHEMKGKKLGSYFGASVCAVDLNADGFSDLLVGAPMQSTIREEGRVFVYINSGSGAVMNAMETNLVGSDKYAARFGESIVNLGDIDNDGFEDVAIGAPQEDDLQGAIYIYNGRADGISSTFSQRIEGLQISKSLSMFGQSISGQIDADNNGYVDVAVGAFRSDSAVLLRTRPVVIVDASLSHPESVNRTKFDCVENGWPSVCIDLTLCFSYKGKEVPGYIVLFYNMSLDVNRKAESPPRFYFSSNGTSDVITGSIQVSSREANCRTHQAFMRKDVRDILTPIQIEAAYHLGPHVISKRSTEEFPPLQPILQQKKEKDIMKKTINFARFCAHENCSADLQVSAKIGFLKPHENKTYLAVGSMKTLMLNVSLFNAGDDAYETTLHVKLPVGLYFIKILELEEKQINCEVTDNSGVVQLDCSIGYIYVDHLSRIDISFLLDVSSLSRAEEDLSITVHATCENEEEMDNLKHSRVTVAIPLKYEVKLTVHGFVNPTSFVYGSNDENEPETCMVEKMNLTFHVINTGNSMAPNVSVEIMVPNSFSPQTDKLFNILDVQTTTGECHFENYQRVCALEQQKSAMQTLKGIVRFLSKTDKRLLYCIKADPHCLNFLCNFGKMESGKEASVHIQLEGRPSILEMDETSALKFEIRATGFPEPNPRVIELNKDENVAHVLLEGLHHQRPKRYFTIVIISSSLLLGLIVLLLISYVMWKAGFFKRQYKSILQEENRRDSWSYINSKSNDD
T1 sequence (P05556 21-798): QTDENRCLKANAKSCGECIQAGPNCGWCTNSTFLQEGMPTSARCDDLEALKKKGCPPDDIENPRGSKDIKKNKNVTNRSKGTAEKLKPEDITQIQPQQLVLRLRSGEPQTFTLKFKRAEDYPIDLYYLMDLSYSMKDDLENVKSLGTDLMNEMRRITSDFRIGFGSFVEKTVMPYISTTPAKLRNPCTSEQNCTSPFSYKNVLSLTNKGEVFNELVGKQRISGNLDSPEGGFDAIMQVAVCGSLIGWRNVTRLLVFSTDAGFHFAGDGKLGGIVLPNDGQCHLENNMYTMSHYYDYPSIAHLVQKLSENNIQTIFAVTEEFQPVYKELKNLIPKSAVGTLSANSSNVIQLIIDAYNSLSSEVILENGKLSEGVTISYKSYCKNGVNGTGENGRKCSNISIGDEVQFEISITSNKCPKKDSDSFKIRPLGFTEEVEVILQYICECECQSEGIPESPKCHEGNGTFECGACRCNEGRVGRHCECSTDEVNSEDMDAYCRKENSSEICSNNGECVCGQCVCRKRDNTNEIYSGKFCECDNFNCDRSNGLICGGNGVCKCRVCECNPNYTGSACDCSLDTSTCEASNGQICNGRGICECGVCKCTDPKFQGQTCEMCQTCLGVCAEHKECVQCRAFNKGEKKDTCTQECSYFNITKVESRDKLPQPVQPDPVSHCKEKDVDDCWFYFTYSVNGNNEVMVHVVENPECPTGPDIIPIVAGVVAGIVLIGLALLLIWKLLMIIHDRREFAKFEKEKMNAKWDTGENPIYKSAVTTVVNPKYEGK
Experiment: Inhibition of VLA4-dependent adhesion of Ramos cells to BSA-CS1
Type: cell-based
Conditions: Ramos cells, BSA-CS1 coated wells, 2 mM MnCl2, 30 minutes at room temperature; read-out: IC50
In short: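 BCECF-AM-labelled Ramos cells in Tris buffer pH 7.4 with 2 mM MnCl2 were added with compound to wells coated with BSA-conjugated Cys-Tyr-CS1 peptide (1 μg/mL). Cells and compound were incubated for 30 min at room temperature, in triplicate. Inhibition was quantified from bound fluorescence against no-compound controls, with uncoated wells used for nonspecific binding.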

| SMILES | IC50 |
| --- | --- |
| COC(=O)[C@@H](NC(=O)[C@H](CC(=O)O)NC(=O)[C@H](CC(C)C)N(C)C(=O)CCCc1ccccc1)C(C)C [Compound 143] | > 10 µM |
| CC(C)C[C@H](NC(=O)Cc1ccc(NC(=O)Nc2ccccc2O)cc1)C(=O)N[C@@H](CC(=O)O)C(=O)N[C@H](C(=O)N1CCC[C@H]1C(=O)O)C(C)C [Compound 144] ({X1-CO}-[X2]LDVP-OH) | < 0.05 µM |
| CC(C)C[C@H](NC(=O)Cc1ccc(NC(=O)Nc2ccccc2)cc1)C(=O)N[C@@H](CC(=O)O)C(=O)N[C@H](C(=O)N1CCC[C@H]1C(=O)O)C(C)C [Compound 145] ({NHPh-CO}-[X2]LDVP-OH) | < 0.05 µM |
| CSCC[C@H](NC(=O)Cc1ccc(NC(=O)Nc2ccccc2O)cc1)C(=O)N[C@@H](CC(=O)O)C(=O)N[C@H](C(=O)N1CCC[C@H]1C(=O)O)C(C)C [Compound 146] ({X1-CO}-[X2]MDVP-OH) | < 0.05 µM |
| COc1cc(CC(=O)N[C@@H](CC(C)C)C(=O)N[C@@H](CC(=O)O)C(=O)N[C@H](C(=O)N2CCC[C@H]2C(N)=O)C(C)C)ccc1NC(=O)Nc1ccccc1 [Compound 147] ({NHPh-CO}-[X3]LDVP-NH2) | < 0.05 µM |
| Cc1ccccc1NC(=O)Nc1ccc(CC(=O)N[C@@H](CC(C)C)C(=O)N[C@@H](CC(=O)O)C(=O)N[C@H](C(=O)N2CCC[C@H]2C(N)=O)C(C)C)cc1 [Compound 148] ({NH(2-Me-phenyl)-CO}-[X2]LDVP-NH2) | < 0.05 µM |
| CC(C)[C@H](NC(=O)[C@H](CC(=O)O)NC(=O)OC(C)(C)C)C(=O)N1CCC[C@H]1C(=O)O [Compound 149] (HELM PEPTIDE1{[CC(C)(C)OC(=O)[*:2]].D.V.P}$$$$V2.0) | > 10 µM |
| CC(C)[C@H](NC(=O)[C@H](CC(=O)O)NC(=O)CCCCc1ccccc1)C(=O)N1CCC[C@H]1C(=O)O [Compound 150] | > 10 µM |
| C=CCC(CCc1ccccc1)C(=O)N[C@H](C(=O)N1CCC[C@H]1C(=O)O)C(C)C (some centres unmarked) [Compound 151] | > 10 µM |
| CC(=O)N[C@@H](Cc1ccccc1)C(=O)N[C@@H](CC(C)C)C(=O)N[C@@H](CC(=O)O)C(=O)N[C@H](C(=O)O)C(C)C [Compound 152] (Ac-FLDV-OH) | > 10 µM |
| COC(=O)[C@@H](NC(=O)[C@H](CC(=O)O)NC(=O)[C@H](CC(C)C)NC(=O)C1Cc2ccccc2CN1)C(C)C (some centres unmarked) [Compound 154] (HELM PEPTIDE1{[O=C(C1Cc2ccccc2CN1)[*:2]].L.D.V.[CO[*:1]]}$$$$V2.0) | > 10 µM |
| CC(C)C[C@H](NC(=O)CCCc1ccccc1)C(=O)N[C@@H](CC(=O)O)C(=O)N[C@H](C(=O)O)C(C)C [Compound 155] | > 10 µM |
| COC(=O)[C@@H](NC(=O)[C@H](CC(=O)O)NC(=O)[C@H](CC(C)C)NC(=O)c1cc2ccccc2cn1)C(C)C [Compound 156] | 0.05 to 10 µM |
| CC(C)CNC(=O)[C@H](CC(=O)O)NC(=O)[C@H](CC(C)C)NC(=O)c1cc2ccccc2cn1 [Compound 157] | 0.05 to 10 µM |
| CC(C)C[C@H](NC(=O)c1ccc2ccccc2n1)C(=O)N[C@@H](CC(=O)O)C(=O)N[C@H](C(=O)OC(C)(C)C)C(C)C [Compound 158] | > 10 µM |
| CC(C)C[C@H](NC(=O)c1ccc2ccccc2n1)C(=O)N[C@@H](CC(=O)OCc1ccccc1)C(=O)N[C@H](C(=O)O)C(C)C [Compound 159] | > 10 µM |
| CC(C)C[C@H](NC(=O)c1ccc2ccccc2n1)C(=O)N[C@@H](CC(=O)O)C(=O)N[C@@H](CC(=O)O)C(=O)O [Compound 160] | > 10 µM |
| CC(C)CNC(=O)[C@H](CC(=O)O)NC(=O)[C@H](CC(C)C)NC(=O)CCCc1ccccc1 [Compound 161] | > 10 µM |
| CC(C)CNC(=O)[C@H](CC(=O)O)NC(=O)[C@H](CC(C)C)NC(=O)CCc1ccccc1 [Compound 162] | > 10 µM |
| CC(C)CNC(=O)[C@H](CC(=O)O)NC(=O)[C@H](CC(C)C)NC(=O)CNC(=O)c1ccccc1 [Compound 163] | > 10 µM |
| CNC(=O)[C@@H](NC(=O)[C@H](CC(=O)O)NC(=O)[C@H](CC(C)C)NC(=O)c1ccc2ccccc2n1)C(C)C [Compound 164] | 0.05 to 10 µM |
| COc1ccc(C(=O)N[C@@H](CC(C)C)C(=O)N[C@@H](CC(=O)O)C(=O)NCC(C)C)cc1 [Compound 165] | > 10 µM |
| COC(=O)[C@@H](NC(=O)[C@H](CC(=O)O)NC(=O)[C@H](CC(C)C)NC(=O)CCCc1ccccc1)C(C)C [Compound 166] | > 10 µM |
| COC(=O)[C@H](CCSC)NC(=O)[C@@H](NC(=O)[C@H](CC(=O)O)NC(=O)[C@H](CC(C)C)NC(=O)OC(C)(C)C)C(C)C [Compound 167] (HELM PEPTIDE1{[CC(C)(C)OC(=O)[*:2]].L.D.V.M.[CO[*:1]]}$$$$V2.0) | > 10 µM |
| COC(=O)[C@H](CCSC)NC(=O)[C@@H](NC(=O)[C@H](CC(=O)O)NC(=O)[C@H](CC(C)C)NC(=O)c1ccc2ccccc2n1)C(C)C [Compound 168] (HELM PEPTIDE1{[O=C(c1ccc2ccccc2n1)[*:2]].L.D.V.M.[CO[*:1]]}$$$$V2.0) | 0.05 to 10 µM |

| SMILES | IC50 |
| --- | --- |
| CCCCNC(=O)N[C@@H](CC(=O)O)C(=O)N[C@H](C(=O)OC)C(C)C [Compound 169] ({NHBu-CO}-Asp-Val-OMe) | > 10 µM |
| COC(=O)[C@@H](NC(=O)[C@H](CC(=O)O)NC(=O)[C@H](CC(C)C)NC(=O)c1ccc2ccccc2n1)[C@@H](C)O [Compound 170] | > 10 µM |
| CC(C)CNC(=O)[C@H](CC(=O)O)NC(=O)[C@H](CC(C)C)NC(=O)NC(C)(C)C [Compound 171] | > 10 µM |
| COC(=O)[C@@H](NC(=O)[C@H](CC(=O)O)NC(=O)CNC(=O)c1ccccc1)C(C)C [Compound 172] (HELM PEPTIDE1{[O=C(c1ccccc1)[*:2]].G.D.V.[CO[*:1]]}$$$$V2.0) | > 10 µM |
| COC(=O)C[C@H](NC(=O)CNC(=O)c1ccccc1)C(=O)N[C@H](C(=O)OC)C(C)C [Compound 173] (Bz-Gly-Asp(OMe)-Val-OMe) | > 10 µM |
| CC(C)C[C@H](NC(=O)c1ccc2ccccc2n1)C(=O)N[C@@H](CC(=O)O)C(=O)NC(CO)C(C)C (some centres unmarked) [Compound 174] | 0.05 to 10 µM |
| CC(C)C[C@H](NC(=O)c1ccc2ccccc2n1)C(=O)N[C@@H](CC(=O)O)C(=O)N[C@H](C(=O)N1CCOCC1)C(C)C [Compound 175] | 0.05 to 10 µM |
| COC(=O)[C@@H](NC(=O)[C@H](CC(=O)O)NC(=O)[C@H](CC(C)C)NC(=O)Cc1ccc(OC)cc1)[C@@H](C)O [Compound 176] | > 10 µM |
| COC(=O)[C@@H](NC(=O)[C@H](CC(=O)O)NC(=O)[C@H](CC(C)C)NS(=O)(=O)c1ccc(OC)cc1)[C@@H](C)O [Compound 177] | > 10 µM |
| CNC(=O)[C@@H](NC(=O)[C@H](CC(=O)O)NC(=O)[C@H](CC(C)C)N(C)C(=O)c1ccc2ccccc2n1)C(C)C [Compound 179] | > 10 µM |
| CNC(=O)[C@@H](NC(=O)[C@H](CC(=O)O)NC(=O)[C@H](CC(C)C)N(C)C(=O)Cc1ccccc1)C(C)C [Compound 180] (HELM PEPTIDE1{[O=C(Cc1ccccc1)[*:2]].[meL].D.V.[CN[*:1]]}$$$$V2.0) | 0.05 to 10 µM |
| CNC(=O)[C@@H](NC(=O)[C@H](CC(=O)O)NC(=O)[C@H](CC(C)C)NC(=O)Cc1ccccc1)C(C)C [Compound 181] (HELM PEPTIDE1{[O=C(Cc1ccccc1)[*:2]].L.D.V.[CN[*:1]]}$$$$V2.0) | > 10 µM |
| CNC(=O)[C@@H](NC(=O)[C@H](CC(=O)O)NC(=O)[C@H](CC(C)C)N(C)C(=O)CCc1ccccc1)C(C)C [Compound 182] (HELM PEPTIDE1{[O=C(CCc1ccccc1)[*:2]].[meL].D.V.[CN[*:1]]}$$$$V2.0) | > 10 µM |
| CNC(=O)[C@@H](NC(=O)[C@H](CC(=O)O)NC(=O)[C@H](CCSC)NC(=O)Cc1ccccc1)C(C)C [Compound 183] (HELM PEPTIDE1{[O=C(Cc1ccccc1)[*:2]].M.D.V.[CN[*:1]]}$$$$V2.0) | > 10 µM |
| CNC(=O)[C@@H](NC(=O)[C@H](CC(=O)O)NC(=O)[C@H](CC(C)C)NC(=O)Nc1ccccc1)C(C)C [Compound 187] ({NHPh-CO}-Leu-Asp-Val-NHMe) | > 10 µM |
| CNC(=O)[C@@H](NC(=O)[C@H](CC(=O)O)NC(=O)[C@H](CC(C)C)N(C)C(=O)Cc1ccc(O)cc1)C(C)C [Compound 188] | > 10 µM |
| CNC(=O)[C@@H](NC(=O)[C@H](CC(=O)O)NC(=O)[C@H](CC(C)C)NS(=O)(=O)c1ccccc1)C(C)C [Compound 189] | > 10 µM |
| COC(=O)[C@@H](NC(=O)[C@H](CC(=O)O)NC(=O)[C@H](CC(C)C)NC(=O)Cc1ccccc1)[C@@H](C)OC [Compound 190] (PhAc-Leu-Asp-Thr(Me)-OMe) | > 10 µM |
| COC(=O)[C@@H](NC(=O)[C@H](CC(=O)O)NC(=O)[C@H](CC(C)C)NC(=O)Cc1ccccc1)[C@@H](C)O [Compound 191] (HELM PEPTIDE1{[O=C(Cc1ccccc1)[*:2]].L.D.T.[CO[*:1]]}$$$$V2.0) | > 10 µM |
| COC(=O)[C@@H](NC(=O)[C@H](CC(=O)O)NC(=O)[C@H](CC(C)C)NC(=O)Cc1ccccc1)[C@@H](C)OCc1ccccc1 [Compound 192] (PhAc-Leu-Asp-Thr(Bn)-OMe) | 0.05 to 10 µM |
| COC(=O)[C@@H](NC(=O)[C@H](CC(=O)O)NC(=O)[C@H](CC(C)C)NC(=O)Cc1ccccc1)[C@@H](C)OC(C)=O [Compound 193] (PhAc-Leu-Asp-Thr(Ac)-OMe) | > 10 µM |
| CCCCOC(=O)[C@@H](NC(=O)[C@H](CC(=O)O)NC(=O)[C@H](CC(C)C)NC(=O)c1ccc2ccccc2n1)[C@@H](C)O [Compound 195] | > 10 µM |
| CCCCOC(=O)[C@@H](NC(=O)[C@H](CC(=O)O)NC(=O)[C@H](CC(C)C)NC(=O)Cc1ccccc1)C(C)C [Compound 196] | > 10 µM |
| COc1ccc(CNC(=O)[C@@H](NC(=O)[C@H](CC(=O)O)NC(=O)[C@H](CC(C)C)NC(=O)c2ccc3ccccc3n2)[C@@H](C)O)cc1 [Compound 197] | 0.05 to 10 µM |
| CC(C)C[C@H](NC(=O)c1ccc2ccccc2n1)C(=O)N[C@@H](CC(=O)O)C(=O)NCCC(C)(C)C [Compound 198] | > 10 µM |
